Measurements taken from ChEMBL document CHEMBL1201862, “PubChem BioAssay data set” (2004).
Active and inactive are the calls of the source.

Legend:
[1] = target: T1, Heat shock factor protein 1 (Mus musculus, UniProt P38532); assay: inhibition of MG132-induced HSE-luciferase signal, confirmation, cell-based, NIH3T3, luminescence, dose retest (AID 2382); format: functional;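 further: NIH3T3 fibroblasts with HSF1-driven luciferase reporter stressed by proteasome inhibitor MG132; luminescence from HSF1-driven luciferase expression after 8 hours of MG132 stress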
T1 sequence (P38532 whole entry): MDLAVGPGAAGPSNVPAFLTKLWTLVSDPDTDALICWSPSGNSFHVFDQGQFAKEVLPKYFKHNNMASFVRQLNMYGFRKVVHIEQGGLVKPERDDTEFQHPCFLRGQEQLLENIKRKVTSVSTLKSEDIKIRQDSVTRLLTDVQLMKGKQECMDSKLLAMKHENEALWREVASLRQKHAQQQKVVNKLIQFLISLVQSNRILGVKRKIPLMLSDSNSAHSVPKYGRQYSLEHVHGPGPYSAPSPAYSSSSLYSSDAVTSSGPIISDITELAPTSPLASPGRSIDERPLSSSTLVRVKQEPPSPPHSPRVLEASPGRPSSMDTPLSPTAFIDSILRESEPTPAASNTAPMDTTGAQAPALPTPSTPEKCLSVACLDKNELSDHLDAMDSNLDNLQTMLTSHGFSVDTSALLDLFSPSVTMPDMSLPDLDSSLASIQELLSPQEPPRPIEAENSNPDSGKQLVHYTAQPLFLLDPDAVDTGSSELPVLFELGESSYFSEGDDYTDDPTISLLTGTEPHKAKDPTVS

[2] = HEp-2 cell cytotoxicity, dose response, cytotoxicity control for RSV inhibitor project, HTS (AID 2410); format: functional; settings: human respiratory syncytial virus
[3] = inhibitors of intracellular T. cruzi replication, confirmation, NIH3T3 host cells, beta-gal luminescence (AID 2044); format: functional, cell-based;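 further: intracellular parasites grown in NIH/3T3 mouse fibroblasts as host cells; luminescent beta-galactosidase reporter signal from transgenic T. cruzi replicating inside host cells; inhibitors lower the luminescence signal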
[4] = cytotoxicity toward NIH3T3 fibroblasts, dose response, counter-screen, cell-based, ATP luminescence, mouse fibroblasts (AID 2010); format: functional;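 further: cells exposed to compound for about 90 hours before reading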
Cytochrome P450 2C19 = Cytochrome P450 2C19 (Homo sapiens, UniProt P33261); assay: Cytochrome panel assay with activity outcomes. Panel member name: p450-cyp2c19 Compounds with AC50 equal or less than 10 uM are considered active; format: functional; settings: read-out: AC50
Cytochrome P450 2C19, sequence (P33261 whole entry): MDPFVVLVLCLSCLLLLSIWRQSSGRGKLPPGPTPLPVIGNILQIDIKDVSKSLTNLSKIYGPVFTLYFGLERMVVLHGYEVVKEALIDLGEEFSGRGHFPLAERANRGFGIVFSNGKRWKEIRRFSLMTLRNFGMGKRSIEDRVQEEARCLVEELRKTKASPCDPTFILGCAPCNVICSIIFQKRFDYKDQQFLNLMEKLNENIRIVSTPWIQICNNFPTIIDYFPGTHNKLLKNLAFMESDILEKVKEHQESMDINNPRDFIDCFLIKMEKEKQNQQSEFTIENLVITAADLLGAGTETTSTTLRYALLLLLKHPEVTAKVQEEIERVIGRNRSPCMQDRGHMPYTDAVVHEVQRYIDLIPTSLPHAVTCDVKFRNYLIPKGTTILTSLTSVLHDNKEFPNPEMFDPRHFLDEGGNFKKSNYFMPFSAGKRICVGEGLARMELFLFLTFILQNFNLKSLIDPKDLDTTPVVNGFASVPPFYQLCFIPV

Cytochrome P450 1A2 = target: T2, Cytochrome P450 1A2 (Homo sapiens, UniProt P05177);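 further: PubChem cytochrome P450 panel assay, CYP1A2 panel member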
T2 sequence (P05177 whole entry): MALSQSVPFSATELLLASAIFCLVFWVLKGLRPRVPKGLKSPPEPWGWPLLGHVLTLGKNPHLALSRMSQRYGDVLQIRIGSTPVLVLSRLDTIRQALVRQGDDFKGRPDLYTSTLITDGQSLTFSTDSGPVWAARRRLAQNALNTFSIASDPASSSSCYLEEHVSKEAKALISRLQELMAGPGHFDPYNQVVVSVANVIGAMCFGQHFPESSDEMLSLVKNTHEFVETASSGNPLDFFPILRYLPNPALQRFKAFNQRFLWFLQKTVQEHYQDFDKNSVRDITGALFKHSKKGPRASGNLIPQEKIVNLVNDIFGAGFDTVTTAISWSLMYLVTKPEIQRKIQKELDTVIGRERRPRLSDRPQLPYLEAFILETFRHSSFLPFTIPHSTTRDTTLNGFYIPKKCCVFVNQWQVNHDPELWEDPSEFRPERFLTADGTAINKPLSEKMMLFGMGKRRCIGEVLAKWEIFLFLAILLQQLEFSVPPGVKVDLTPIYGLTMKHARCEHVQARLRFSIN

Cytochrome P450 3A4 = Cytochrome P450 3A4 (Homo sapiens, UniProt P08684);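 further: CYP3A4 tested as one member of a cytochrome P450 panel screen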
Cytochrome P450 3A4, sequence (P08684 whole entry): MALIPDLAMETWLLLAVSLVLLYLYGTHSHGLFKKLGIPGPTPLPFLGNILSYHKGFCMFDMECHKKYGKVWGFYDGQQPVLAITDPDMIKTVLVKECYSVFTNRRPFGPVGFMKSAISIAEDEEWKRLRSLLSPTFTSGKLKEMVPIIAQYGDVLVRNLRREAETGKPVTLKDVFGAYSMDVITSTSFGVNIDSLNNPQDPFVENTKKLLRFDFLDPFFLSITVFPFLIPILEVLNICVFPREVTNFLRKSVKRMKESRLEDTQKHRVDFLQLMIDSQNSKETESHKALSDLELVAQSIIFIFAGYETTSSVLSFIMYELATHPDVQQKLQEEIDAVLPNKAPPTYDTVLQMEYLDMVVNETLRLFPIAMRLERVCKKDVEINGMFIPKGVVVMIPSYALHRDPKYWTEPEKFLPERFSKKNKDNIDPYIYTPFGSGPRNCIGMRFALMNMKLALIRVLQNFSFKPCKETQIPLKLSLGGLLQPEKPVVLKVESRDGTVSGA

Cytochrome P450 2D6 = Cytochrome P450 2D6 (Homo sapiens, UniProt P10635);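 further: CYP2D6 member of a cytochrome P450 panel assay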
Cytochrome P450 2D6, sequence (P10635 whole entry): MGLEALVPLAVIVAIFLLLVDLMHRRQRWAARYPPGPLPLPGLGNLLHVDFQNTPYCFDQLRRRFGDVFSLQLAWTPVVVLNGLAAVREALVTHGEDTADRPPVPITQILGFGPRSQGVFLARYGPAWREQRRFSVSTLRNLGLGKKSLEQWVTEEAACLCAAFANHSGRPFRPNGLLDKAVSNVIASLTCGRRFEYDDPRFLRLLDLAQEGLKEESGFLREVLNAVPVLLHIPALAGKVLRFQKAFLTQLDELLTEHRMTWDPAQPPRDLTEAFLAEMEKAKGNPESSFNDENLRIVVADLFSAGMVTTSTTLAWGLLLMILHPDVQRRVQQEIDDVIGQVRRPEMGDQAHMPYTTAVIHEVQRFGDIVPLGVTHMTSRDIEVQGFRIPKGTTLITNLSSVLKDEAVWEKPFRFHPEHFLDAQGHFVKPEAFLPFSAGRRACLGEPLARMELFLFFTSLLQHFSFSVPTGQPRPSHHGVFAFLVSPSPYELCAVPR

Streptokinase A = target: T3, Streptokinase A (Streptococcus pyogenes serotype M1, UniProt P10520); assay: S. pyogenes streptokinase expression inhibitors, potency, dose response, plasminogen activation absorbance, OD405 (AID 1914); format: functional, Streptococcus pyogenes M1 GAS;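 further: secreted streptokinase activity via plasminogen activation per viability signal from cell pellet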
T3 sequence (P10520 whole entry): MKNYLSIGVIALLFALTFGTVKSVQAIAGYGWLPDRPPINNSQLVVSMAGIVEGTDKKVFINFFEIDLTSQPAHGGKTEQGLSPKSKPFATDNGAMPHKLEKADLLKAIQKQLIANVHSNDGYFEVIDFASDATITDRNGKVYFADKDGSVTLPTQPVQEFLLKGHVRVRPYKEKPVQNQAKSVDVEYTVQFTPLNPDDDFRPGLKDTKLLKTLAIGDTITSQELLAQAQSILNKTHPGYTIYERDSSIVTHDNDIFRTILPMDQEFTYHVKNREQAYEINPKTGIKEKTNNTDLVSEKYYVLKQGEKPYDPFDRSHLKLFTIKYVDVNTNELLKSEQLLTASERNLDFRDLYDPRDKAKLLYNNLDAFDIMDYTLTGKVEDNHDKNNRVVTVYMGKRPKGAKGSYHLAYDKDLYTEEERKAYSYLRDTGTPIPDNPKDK

Streptococcus = assay: Group A Streptococcus viability loss, dose response, counter-screen for streptokinase expression inhibitor project, luminescence, BacTiterGlo (AID 1915); format: functional, organism-based;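 further: potency for reduction of bacterial viability or growth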
[5] = test system: Streptococcus sp. 'group A'; assay: growth inhibition of control SK(-) GAS strain, dose response, counter-screen for streptokinase expression inhibitor project, luminescence, kanamycin, BacTiterGlo, confirmation (AID 1900); format: functional, organism-based
[6] = Luminescence Cell-Based Dose Retest to Confirm Inhibitors of Cancer Stem Cells. [Related pubchem assays (depositor defined):AID2717, AID2721]; format: functional, Homo sapiens; settings: Homo sapiens

Structure (SMILES)	EC50 [1]	CC50 [2]	further results
COc1ccccc1CCC(=O)OCC(=O)Nc1cccc(S(=O)(=O)N2CCOCC2)c1	> 195 µM (not active)	–	–
O=S(=O)(c1cccc(-c2csc(-c3cccnc3)n2)c1)N1CCCCC1	–	28.9 µM (active)	–
CCN(CC)CCNCc1cc(Cl)ccc1OCc1ccccc1F	> 195 µM (not active)	–	–
O=C(COC(=O)c1ccccc1C(=O)c1ccccc1)Nc1ccc(SC(F)F)cc1	–	16.4 µM (active)	–
COc1ccc(-c2cc(C(=O)Nc3ccc(S(N)(=O)=O)cc3)c3ccccc3n2)cc1OC	> 195 µM (not active)	–	–
COc1cccc(-c2c(NC(C)=O)n(C)c3ccccc3c2=O)c1	> 195 µM (not active)	–	–
Cc1c(C(=O)NNC(=O)Nc2ccc([N+](=O)[O-])cc2)oc2ccccc12	–	> 50 µM (active)	–
Cc1cccc(OCC(=O)Nc2cccc(C(=O)NCC(C)C)c2)c1	> 195 µM (not active)	–	–
Cc1cc(-n2c(C)cc(C(=O)COC(=O)CNC3=NS(=O)(=O)c4ccccc43)c2C)no1	–	25.8 µM (active)	–
O=C(CSc1ccc(-c2ccccn2)nn1)NC1CCCCC1	> 195 µM (not active)	–	–
Oc1nc(CCl)nc2cc(-c3ccc(Cl)cc3)sc12	–	14.5 µM (active)	EC50 [3]: 1.14 µM (active); EC50 [4]: 6.96 µM (active)
Cc1cc(C(=O)CSc2ccc(F)cc2)cc(C)c1OC(=S)N(C)C	< 0.16 µM (active)	–	–
COc1ccc(CCNC(=O)Cc2nn(C)c(=O)c3ccccc23)cc1OC	> 195 µM (not active)	–	–
CN1CCc2c(sc3c2c(=O)n(-c2ccc(Cl)cc2)c2nncn32)C1	> 195 µM (not active)	–	–
Cc1ccc(-c2nn3c(C)nnc3s2)cc1N	–	22.1 µM (active)	–
CC(C)=CCN1CCN(Cc2cc(F)ccc2-n2nc(C)cc2C)CC1CCO (stereo not drawn)	> 195 µM (not active)	–	–
CCOC(=O)c1ccc(N/C=C/C(=O)c2ccc(OC)cc2)cc1	> 195 µM (not active)	–	AC50 (Cytochrome P450 2C19): 2.82 µM (inconclusive); AC50 (Cytochrome P450 1A2): 22.4 µM (inconclusive); AC50 (Cytochrome P450 3A4): 6.31 µM (inconclusive)
O=[N+]([O-])c1ccc2nc(SCc3ccccc3Cl)sc2c1	–	29 µM (active)	–

Structure (SMILES)	EC50 [1]	CC50 [2]	further results
CCn1cnc2cc(NCc3ccccc3Cl)ccc21	–	25 µM (active)	–
CCC1(c2ccccc2)NC(=O)N(CC(=O)Nc2cc(S(=O)(=O)N3CCCCCC3)ccc2OC)C1=O (stereo not drawn)	–	29.9 µM (active)	–
CCS(=O)(=O)N1CCN(C(=O)c2ccccc2)CC1	> 195 µM (not active)	–	–
Cn1cc(/C=C2\SC(=O)N(c3ccc(O)cc3)C2=O)c2ccccc21	–	16 µM (active)	–
COc1nc(N)c(C#N)c(-c2ccc(N(C)CCC#N)cc2)c1C#N	15.6 µM (active)	–	–
Cc1cc(O)nc(CCl)n1	> 195 µM (not active)	–	–
CCOc1ccc(NCc2nnc(SCc3ccccc3Cl)n2-c2ccccc2)cc1	> 195 µM (not active)	–	AC50 (Cytochrome P450 2D6): 25.1 µM (inconclusive)
Cc1cc(C2(c3cc(C)c(NC(=O)CN4CCOCC4)c(C)c3)CCCCC2)cc(C)c1NC(=O)CN1CCOCC1	> 195 µM (not active)	–	–
Cc1ccc(S(=O)(=O)N(C)CC(=O)N2CCc3ccccc32)cc1	> 195 µM (not active)	–	–
Cc1ccc2c(c1)c1c3n2CCN(C(=O)Cn2c(-c4ccccc4)noc2=O)C3CCC1 (stereo not drawn)	–	38.8 µM (active)	–
Cc1ccc(Nc2nc(N)c([N+](=O)[O-])c(NCc3ccco3)n2)cc1	–	> 50 µM (active)	–
Cc1ccnc(NC(c2ccsc2)c2ccc3ccc(C)nc3c2O)c1 (stereo not drawn)	> 195 µM (not active)	–	EC50 (Streptokinase A): > 150 µM (not active); EC50 (Streptococcus): 20.5 µM (active); EC50 [3]: 1.64 µM (active); EC50 [5]: 10.6 µM (active); EC50 [4]: 9.38 µM (active)
CCC1CCCCN1CCCNC(=O)CSc1nc2nc(C)c(Cc3ccc(C)cc3)c(C)n2n1 (stereo not drawn)	> 195 µM (not active)	–	–
CCOC(=O)c1c(NC(=O)COC(=O)c2nccnc2N)sc(C(=O)N(C)C)c1C	> 195 µM (not active)	–	–
O=C(NCc1nc2ccccc2[nH]1)C1=C[C@@H](c2csc3ccccc23)C[C@@H](OCc2ccc(CO)cc2)O1	–	39 µM (active)	–
COn1c2c(c3c4no[n+]([O-])c4ccc31)CCCC2	–	16.5 µM (active)	–
CC(C)(C)C1CCc2c(sc(NC(=O)CSc3nc[nH]n3)c2C#N)C1 (stereo not drawn)	> 195 µM (not active)	–	AC50 [6]: 4.46 µM (active)
CC(C)(C)c1ccc(OCc2ccc(C(=O)N/N=C/c3ccc([N+](=O)[O-])cc3)o2)cc1	–	23.3 µM (active)	–
